Measurements published in US20250073355A1, “CD44-BINDING PEPTIDE REAGENTS AND METHODS” (THE REGENTS OF THE UNIVERSITY OF MICHIGAN, priority 2021, published 2025).

Assays:
[1] = test system: orthotopic SK-Hep1 xenograft tumors; assay: Whole body fluorescence imaging of orthotopic human HCC xenograft tumors
Procedure: (§1) Human HCC xenograft tumors were implanted orthotopically in female nude athymic mice. First, ˜5×10^6 SK-Hep1 tumor cells were injected subcutaneously into the hind limb flank. Tumors were then monitored twice a week and allowed to grow to 1-2 cm in diameter for 10-30 days. A small horizontal incision was made below the sternum to expose the liver. The liver was incised with a sharp scalpel horizontally in parallel with the surface of the exposed liver. A piece of the subcutaneous tumor with dimensions of ˜1×1×1 mm^3 was implanted into the incision, and then the site was sealed with absorbable hemostatic material (surgical, Johnson & Johnson). The liver was returned to its original position after confirming hemostasis.

[2] = test system: orthotopic human HCC xenograft tumors (SK-Hep1); assay: Photoacoustic imaging of orthotopic human HCC xenograft tumors
Procedure: as §1
IRDye800-labeled target and control peptides (300 μM in 200 μL PBS) were intravenously injected in mice bearing orthotopical SK-Hep1 tumors. An unlabeled peptide (1.5 mM, 100 μL) was injected 30 min prior to the labeled peptide to compete for binding. ICG (2.46 mg/kg) was injected intravenously as a control. Three-dimensional (3D) images were acquired from 0 to 48 h post injection and reconstructed using PAI tomography system (Nexus 128, Endra) using Iex=774 nm excitation. The photoacoustic signal intensity was measured from the two-dimensional (2D) maximum intensity projection (MIP) images, and the pre-injection images were used for background.
The photoacoustic images were collected to evaluate the time course for peptide uptake, FIG. 14A. […] Indocyanine green (ICG) was also administered (2.46 mg/kg) for comparison.

[3] = test system: orthotopic human HCC xenograft tumors; assay: Intraoperative laparoscopic imaging of orthotopic human HCC xenograft tumors; format: in vivo; details: […] post-injection, n=8 mice
Procedure: A self-build imaging module was attached to standard surgical laparoscope (#49003 AA, HOPKINS II Straight Forward Telescope 0°, Karl Storz, El Segundo, CA, USA) to collect WL and NIR FL images. WL illumination (MCWHL5, Thorlabs, Newton, NJ, USA) and FL excitation source (λex=785 nm, #iBEAM-SMART-785-S, Toptica Photonics) were coupled into the laparoscope. WL and NIR FL images are collected, simultaneously, by a color CCD camera (#GX-FW-28S5C-C, Point Grey Research, Richmond, BC V6W 1 K7, Canada) and a NIR CCD camera (Orca R-2, Hamamatsu Photonics, Hamamatsu City, Shizuoka Pref., Japan) with a laser power of 1.2 mW, respectively.
After completion of imaging, the mice were euthanized, and the livers were resected. A human specific anti-cytokeratin was stained on tumor sections by IHC to further confirm the implanted human derived HCC tumors, FIG. 16H. Overexpression of CD44 was confirmed by IHC and IF, FIG. 161,J. Representative histology (H&E) of the tumor is shown, FIG. 16K.

[4] = test system: orthotopic human HCC xenograft tumors and major organs; assay: Peptide biodistribution in tumor-bearing mice; format: in vivo
From the text: The animals were euthanized at peak uptake after intravenous injection of the target and control peptides. Major organs, including heart, spleen, lung, liver, brain, stomach, kidney, intestine, were resected and exposed for white light and fluorescence imaging to measure peptide biodistribution. White light and NIR fluorescence images were collected from the major organs, FIG. 17.

[5] = Serum stability by analytical RP-HPLC; format: in vitro ADME; details: mouse serum, up to 24 hours, read-out: half-life T1/2 in serum (converted)
[6] = test system: SK-Hep1 cells
Procedure: The apparent dissociation constant kd for peptide binding to cells was measured to assess the binding affinity. IRDye800-labeled target peptides were serially diluted in PBS at concentrations of 0, 10, 20, 40, 80, 100, and 200 nM. ˜10^5 SK-Hep1 cells were incubated with the peptides at 4° C. for 1 hour, washed with cold PBS, and the mean fluorescence intensities were measured using flow cytometry. The equilibrium dissociation constant kd=1/ka was calculated by performing a least squares fit of the data to the non-linear equation l=(l0+lmaxka [X])/([…]). l0 and lmax are the initial and maximum fluorescence intensities, corresponding to no peptide and at saturation, respectively, and [X] represents the concentration of the bound peptide. Prism 5.0 software (GraphPad Inc) was used to calculate kd.

[7] = test system: CD44 downstream signaling (pAKT, pErk1/2); assay: Western blot of CD44 downstream cell signaling; format: cell-based, human; details: 4 or 300 μM, 15 min, SK-Hep1 cells
Procedure: Western blots were performed to evaluate markers for activation of downstream cell signaling, FIG. 11. SK-Hep1 cells were incubated with either hyaluronan (HA) or peptide to evaluate activation of downstream signalling after binding to CD44. […] of low molecular weight HA (GLR001, R&D Systems) was added for 15 min. Peptides are added at concentrations of 4 and 300 μM for 15 min. Anti-CD44 antibody (#ab189524, Abcam), anti-AKT (#4691, Cell Signaling), anti-phospho-AKT (#9271, Cell Signaling), anti-ERK1/2 (#ab17942, Abcam,), anti-phospho-ERK1/2 (#ab50011, Abcam), and anti-β-Actin (#4967, Cell Signaling Technology) were used per manufacturer's instructions.

[8] = test system: SK-Hep1 cells (CD44+); assay: Confocal fluorescence microscopy of binding to SK-Hep1 cells; format: cell-based, human
Procedure: The cells were washed with PBS 1× and incubated with 4 μM of either target or control peptide for 3 min. The cells were then washed 3× in PBS, fixed with 4% paraformaldehyde (PFA) for 8 min, washed 3× with PBS then incubated with 2% BSA, 1% goat serum in PBS for 30 min. […] Confocal fluorescence images were collected on Leica SP8 confocal microscope using a 63× oil-immersion objective. Fluorescence intensities were quantified using custom MATLAB (Mathworks) software.

[9] = Animal necropsy (histology, hematology); format: in vivo, mice; details: 48 hours after systemic administration
Procedure: Whole blood was collected for evaluation of hematology and chemistry. Liver, kidney, heart, lung, spleen, stomach, intestine, and brain were harvested and submitted for routine histology (H&E). All slides were evaluated by a liver pathologist.

[10] = test system: SK-Hep1 cells; assay: Apparent association time constant; parameters: species or system human; details: binding to SK-Hep1 cells
[11] = test system: human HCC specimens; assay: Peptide validation in human HCC specimens ex vivo (immunofluorescence)
Procedure: A tissue microarray (TMA) of human HCC was generated to investigate specific binding by the CD44 peptide to human HCC. Formalin-fixed, paraffin-embedded (FFPE) sections of human liver were obtained from the archived tissue bank in the Department of Pathology. The specimens were washed 3× in xylene for 3 min, 100% ethanol for 3 min, 95% ethanol for 3 min, 70% ethanol for 3 min, rinsed in H2O for 2 min. Antigen unmasking was performed by boiling the slides in 10 mM sodium citrate buffer with 0.05% Tween at pH 6.0 for 15 min. The slides were cooled to RT, and were washed in H2O 3× for 5 min. Blocking was performed with DAKO protein blocking agent (X0909, DAKO) for 1 hour at RT. The peptides at 1 μM concentration were incubated for 10 min at RT. The sections were washed 3× in PBST for 3 min, and incubated with 400 μL at 1:500 dilution of recombinant anti-CD44 (#ab189524, Abcam) overnight at 4° C. The sections were then washed 3× in PBST for 5 min. A 1:500 dilution of AF488-labeled secondary antibody (goat anti rabbit Alexa Fluor®488) was added to each section and incubated for 1 hour at RT. The secondary antibody solution was removed and washed 3× with PBST for 5 min. The sections were then mounted with ProLong Gold reagent containing DAPI (Invitrogen). The fluorescence images of each specimen were collected using confocal microscopy (SP8, Leica), and the mean fluorescence intensity from each image was measured from 3 boxes with dimensions of 20×20 μm^2 using custom MATLAB software. Regions of saturated image intensities were avoided.

[12] = test system: SK-Hep1 cells; assay: MTT cytotoxicity assay; format: cell-based, human; details: up to 200 μg/mL, 24 hours
Procedure: The CD44-binding and control peptides were serially diluted over a range of concentrations and incubated with SK-Hep1 cells seeded in 96-well plates for 24 hours. The media was then removed, and MTT solution (100 μL, 0.5 mg/mL) was added. After 4 hours for incubation, the MTT solution was removed, and 150 μL of DMSO was added to each well to solubilize formazan crystals produced by living cells. Absorbance at Aabs=570 (test) and 630 nm (reference) was measured using a plate reader (VersaMax™ Tunable Microplate Reader). The half-maximum inhibitory concentration (IC50) was measured.
An MTT assay was performed to evaluate the cytotoxicity of CD44 peptides. Peptides were incubated with SK-Hep1 cells in increasing concentrations up to 200 μg/mL for 24 hours.

[13] = 1 μM peptide, 10 min, FFPE human sections

## CC1(C)C(/C=C/C=C/C=C/C=C2\N(CCCCS(=O)(=O)O)c3ccc4ccccc4c3C2(C)C)=[N+](CCCCS(=O)(=O)[O-])c2ccc3ccccc3c21 [ICG, Indocyanine green]
[1]; peak uptake ([…]), intravenous, n=5 mice
  T/B ratio, whole body fluorescence imaging (mean±SD): 0.46±0.03
[2]; […] post-injection, intravenous, n=5 mice
  T/B ratio, photoacoustic imaging (mean±SD): 1.39±0.13
[2]; female, nude athymic, mouse, in vivo, iv
  time of peak intensity (uptake) in tumor, photoacoustic: > 24 h
[3]
  T/B ratio, laparoscopic fluorescence imaging (mean±SD): 0.87±0.2

## CC(C)C[C@H](NC(=O)[C@H](Cc1ccc(O)cc1)NC(=O)[C@H](CO)NC(=O)[C@H](Cc1c[nH]c2ccccc12)NC(=O)CNC(=O)[C@H](CCCCN)NC(=O)[C@@H](N)Cc1c[nH]c2ccccc12)C(=O)N[C@@H](Cc1c[nH]c2ccccc12)C(=O)N[C@H](C(=O)N[C@@H](CCC(N)=O)C(=O)N[C@@H](CCC(N)=O)C(=O)N[C@@H](C)C(=O)NCC(=O)NCC(=O)NCC(=O)N[C@@H](CO)C(=O)N[C@@H](CSC1CC(=O)N(CCNC(=O)CCCCCN2C(=CC=C3CCCC(C=CC4=[N+](CCCCS(=O)(=O)[O-])c5ccc(S(=O)(=O)O)cc5C4(C)C)=C3Oc3ccc(S(=O)(=O)O)cc3)C(C)(C)c3cc(S(=O)(=O)O)ccc32)C1=O)C(N)=O)[C@@H](C)O (stereo partly drawn) [WKG*-IRDye800]
[1]; post intravenous injection
  time of return to baseline, whole body fluorescence: ~24 h
[4]; […] after intravenous injection
  intensity in adjacent normal liver region (mean±SD): 0.92±0.45
[4]; mouse, in vivo
  route of clearance: primarily renal clearance
[2]; post intravenous injection
  time of return to baseline, photoacoustic: ~24 h
[5]
  half-life: 5.1 h
[6]
  improved binding affinity by comparison with previously reported CD44 peptides: 3 fold
[6]; read-out: apparent dissociation constant kd, SK-Hep1 cells, 4° C., 1 hour, flow cytometry
  Kd: 43 nM
[7]
  effect on CD44 downstream signaling (phosphorylation of AKT and Erk1/2): no effect
[8]; SK-Hep1 (CD44+) vs Hep 3B (CD44−)
  fluorescence intensity for binding to SK-Hep1 cells compared with Hep 3B cells: Significantly greater
[8]; merged image, SK-Hep1 cell surface
  Pearson correlation coefficient ρ of binding co-localization with anti-CD44-AF488: 0.81
[9]; n=3 mice
  acute toxicity, hematology and chemistry: No acute peptide toxicity was observed
[9]; normal healthy mice
  toxicity on histology (H&E) of vital organs: No signs of toxicity
[10]
  apparent association time constant (time): 6.8 min
  apparent association time constant k: 0.26 min⁻¹
[11]; [13]
  fluorescence intensity, HCC (mean±SD): 1.47±0.50
  fluorescence intensity, adenoma (mean±SD): 0.93±0.35
  fluorescence intensity, cirrhosis (mean±SD): 0.67±0.34
  fluorescence intensity, normal human liver (mean±SD): 0.56±0.21
[11]; human HCC sections
  binding to the cell surface of HCC, immunofluorescence: strong binding
[12]
  effect on cell viability (MTT): no effect on cell viability until the highest concentrations were reached
